Reference: patent US7943658B2, “Indole indane amide compounds useful as CB2 agonists and method” (Bristol-Myers Squibb Company, priority 2007, dated 2011)

What was measured:
hCB2 receptors = biological target: T1, hCB2 receptors (Homo sapiens, UniProt P34972); assay: Filtration binding assay, [3H]CP55,940 displacement; settings: membrane proteins or CHO cells expressing hCB2, read-out: CB2 binding Ki
T1 construct: expressed in transfected cells; host or cells: CHO cells
Procedure: Compound dilutions were carried out in duplicate in binding buffer [25 mM HEPES pH 7.4, 150 mM NaCl, 1 mM EDTA, 2 mM MgCl2, 0.25% BSA, […]]. Mix binding buffer, membrane proteins (or CHO cells expressing hCB2 receptors) together. Dispense 75 ul of mixture into each well in 96 well plates. Add 1 ul of drug in DMSO, or DMSO alone into each well. 1:500-1000 dilute the hot ligand [^3H]CP55,940 (specific activity=120 Ci/mmol; PerkinElmer Life and Analytical Sciences) in binding buffer and add 25 ul per well with either 5 ug/well cell membrane or 50000 cells/well. After incubation at room temperature for 2 hours, transfer the binding reaction onto filtration plates (UniFilter CF/C filter plate presoaked with 0.3% polyethylenimine; PerkinElmer Life and Analytical Sciences) using Packard Cell Harvester. Wash the filter with quarter strength of PBS (1:4 dilution of regular PBS with H2O) 8 times. Air dry the filter, add 40 ul MicroScint20 into each well, seal the top, and count with the TopCount. Bound radioactivity was analyzed for Ki using nonlinear regression analysis (Excel Xfit) with the Kd values for [3H]CP55,940 determined from saturation experiments.

[1] = biological target: T2, CB2/CHO cell membrane proteins (Homo sapiens, UniProt P34972); assay: GTPgS binding assay; type: biochemical; settings: [35S]GTPγS, CB2/CHO cell membranes
T2 construct: expressed in transfected cells; host or cells: CHO cells (membranes)
Procedure: Add 50 ul of reaction mixture containing 2 ug of CB2/CHO cell membrane proteins, 10 ul WGA-PVT beads (20 mg/ml), and 5 uM GDP in assay buffer (20 mM HEPES pH 7.4, 100 mM NaCl, 1 mM EDTA, 10 mM MgCl2, 10 ug/ml saponin, 0.25% BSA, and 1 uM leupeptin) into each well in 96 well white plate (Corning 3693, VWR#29444-312). Add 1 ul of testing compound into test, 1 ul of DMSO into basal, 1 ul of 200 uM CP55,940 into 100% activation, 1 ul of 1 mM cold GTPγS into NSB wells, respectively. Dilute [^35S]GTPγS (1:12.5 pre-diluted 1 uCi/ul stock, NEG030H, NEN) 1:1350 in binding buffer and add 25 ul into each well (200 pM final). Incubate at RT for 90 min and spin the plate at 1000 rpm for 5 min before counting with TopCount for 1-2 min.

T2 sequence (P34972 whole entry): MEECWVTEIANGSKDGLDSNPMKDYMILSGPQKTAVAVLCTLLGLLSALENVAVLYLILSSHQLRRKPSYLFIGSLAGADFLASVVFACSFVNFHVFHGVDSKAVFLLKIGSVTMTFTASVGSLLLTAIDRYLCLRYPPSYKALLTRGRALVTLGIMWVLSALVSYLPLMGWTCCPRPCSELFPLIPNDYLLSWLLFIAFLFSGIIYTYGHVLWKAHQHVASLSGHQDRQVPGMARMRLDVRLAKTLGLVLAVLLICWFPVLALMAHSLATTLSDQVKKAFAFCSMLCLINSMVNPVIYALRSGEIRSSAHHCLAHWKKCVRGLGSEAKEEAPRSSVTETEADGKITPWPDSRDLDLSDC
T1 sequence (P34972 whole entry): as above

Row | Ki (hCB2 receptors) [nM] | EC50 [1] [nM] | Compound
1 | 1590 |  | CC1(C)Cc2ccc(C#N)cc2[C@H]1NC(=O)c1cc2cc(O)ccc2[nH]1 [Example 1A, (S)—N-(6-Cyano-2,2-dimethyl-2,3-dihydro-1H-inden-1-yl)-5-hydroxy-1H-indole-2-carboxamide]
2 | 0.71 ± 0.18 | 2.2 ± 0.48 | CC1(C)Cc2ccc(C#N)cc2[C@@H]1NC(=O)c1cc2cc(Cl)ccc2[nH]1 [Example 2, (R)N-(6-Cyano-2,2-dimethyl-2,3-dihydro-1H-inden-1-yl)-5-chloro-1H-indole-2-carboxamide]
3 | 7.6 ± 1.7 | 4.5 ± 1.2 | Cn1c(C(=O)N[C@H]2c3cc(C#N)ccc3CC2(C)C)cc2cc(Cl)ccc21 [Example 3, (R)-5-Chloro-N-(6-cyano-2,2-dimethyl-2,3-dihydro-1H-inden-1-yl)-1-methyl-1H-indole-2-carboxamide]
4 | 60 ± 26 | 8.1 ± 2.2 | CN(C)CCn1c(C(=O)N[C@H]2c3cc(C#N)ccc3CC2(C)C)cc2cc(Cl)ccc21 [Example 4, (R)-5-Chloro-N-(6-cyano-2,2-dimethyl-2,3-dihydro-1H-inden-1-yl)-1-(2-(dimethylamino)ethyl)-1H-indole-2-carboxamide]
5 | 39 ± 14 | 7.8 ± 2.5 | CC1(C)Cc2ccc(C#N)cc2[C@@H]1NC(=O)c1cc2cc(Cl)ccc2n1CCN1CCOCC1 [Example 5, (R)-5-Chloro-N-(6-cyano-2,2-dimethyl-2,3-dihydro-1H-inden-1-yl)-1-(2-morpholinoethyl)-1H-indole-2-carboxamide]
6 | 2.4 ± 1.1 |  | CC1(C)Cc2ccc(C#N)cc2[C@@H]1NC(=O)c1cc2ccccc2[nH]1 [Example 6, (R)—N-(6-Cyano-2,2-dimethyl-2,3-dihydro-1H-inden-1-yl)-1H-indole-2-carboxamide]
7 | 39 ± 14 |  | CC1(C)Cc2ccc(C#N)cc2[C@@H]1NC(=O)c1cc2cc(N)ccc2[nH]1 [Example 9, (R)-5-Amino-N-(6-cyano-2,2-dimethyl-2,3-dihydro-1H-inden-1-yl)-1H-indole-2-carboxamide]

More lines, now with the values behind:

Row | Compound | Ki (hCB2 receptors) [nM] | EC50 [1] [nM]
8 | CC1(C)Cc2ccc(C#N)cc2[C@@H]1NC(=O)c1cc2cc(O)ccc2[nH]1 [Example 1, (R)—N-(6-Cyano-2,2-dimethyl-2,3-dihydro-1H-inden-1-yl)-5-hydroxy-1H-indole-2-carboxamide] | 3 | 2.4 ± 0.55
9 | CC1(C)Cc2ccc(C#N)cc2[C@@H]1NC(=O)c1cc2cc(F)ccc2[nH]1 [Example 7, (R)—N-(6-Cyano-2,2-dimethyl-2,3-dihydro-1H-inden-1-yl)-5-fluoro-1H-indole-2-carboxamide] | 0.24 ± 0.12 | 
10 | CC1(C)Cc2ccc(C#N)cc2[C@@H]1NC(=O)c1cc2cc([N+](=O)[O-])ccc2[nH]1 [Example 8, (R)—N-(6-Cyano-2,2-dimethyl-2,3-dihydro-1H-inden-1-yl)-5-nitro-1H-indole-2-carboxamide] | 4.2 ± 1.6 | 
11 | COCCNc1ccc2[nH]c(C(=O)N[C@H]3c4cc(C#N)ccc4CC3(C)C)cc2c1 [Example 10, (R)—N-(6-Cyano-2,2-dimethyl-2,3-dihydro-1H-inden-1-yl)-5-(2-methoxyethylamino)-1H-indole-2-carboxamide] | 50 ± 16 | 
12 | COC(=O)c1ccc2c(c1)[C@H](NC(=O)c1cc3cc(Cl)ccc3[nH]1)C(C)(C)C2 [Example 11, (R)-Methyl-3-(5-chloro-1H-indole-2-carboxamido)-2,2-dimethyl-2,3-dihydro-1H-indene-5-carboxylate] | 35 ± 12 | 
